The values that follow come from patent publication US20250382344A1, “Soluble GLP1/GIP/NPY2 Receptor Triple Agonists” (Boehringer Ingelheim International GmH, priority 2024, published 2025).

The target in one assay is T1, hGIPR (Homo sapiens, UniProt P48546).
T1 construct: expressed in transfected cells; host or cells: CHO CRE-luciferase reporter cells
T1 sequence (P48546 22-466): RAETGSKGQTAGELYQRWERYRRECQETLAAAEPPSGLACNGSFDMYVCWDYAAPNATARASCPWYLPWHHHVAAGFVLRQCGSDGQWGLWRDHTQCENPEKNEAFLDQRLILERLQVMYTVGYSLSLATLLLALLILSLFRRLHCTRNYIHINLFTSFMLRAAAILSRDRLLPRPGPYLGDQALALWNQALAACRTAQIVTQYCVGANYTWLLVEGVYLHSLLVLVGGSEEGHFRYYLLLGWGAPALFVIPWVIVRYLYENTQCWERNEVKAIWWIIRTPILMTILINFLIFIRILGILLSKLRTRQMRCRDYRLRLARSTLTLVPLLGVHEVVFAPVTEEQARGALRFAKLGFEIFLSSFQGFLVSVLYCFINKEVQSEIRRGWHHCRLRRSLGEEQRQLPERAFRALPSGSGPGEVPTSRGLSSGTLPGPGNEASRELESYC
Nature of the assay: hGIPR CreLuc assay in 0.5% and 100% plasma (CHO CRE-luciferase reporter cells). In kind it is cell-based. For orientation: Reporter assays use an easily measured gene product as a stand-in for the process of interest.

In the next assay the target is T2, hGLP1R (Homo sapiens, UniProt P43220).
T2 construct: expressed in transfected cells; host or cells: HEK-293 CRE-luciferase reporter cells
T2 sequence (P43220 24-463): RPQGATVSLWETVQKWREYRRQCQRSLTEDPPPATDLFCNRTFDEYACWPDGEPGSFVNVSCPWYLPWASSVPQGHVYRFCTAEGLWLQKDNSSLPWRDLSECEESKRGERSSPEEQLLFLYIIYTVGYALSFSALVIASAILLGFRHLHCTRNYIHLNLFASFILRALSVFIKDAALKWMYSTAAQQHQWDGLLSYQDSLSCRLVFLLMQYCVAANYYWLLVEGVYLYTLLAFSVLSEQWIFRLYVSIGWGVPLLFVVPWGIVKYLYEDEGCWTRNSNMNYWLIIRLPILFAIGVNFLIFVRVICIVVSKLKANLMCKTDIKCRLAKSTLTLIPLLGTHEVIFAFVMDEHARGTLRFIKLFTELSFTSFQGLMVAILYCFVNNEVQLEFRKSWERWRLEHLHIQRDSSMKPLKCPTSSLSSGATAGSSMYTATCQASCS
Nature of the assay: hGLP1R CreLuc assay in 0.5% and 100% plasma (HEK-293 CRE-luciferase reporter cells). The note with it: HEK-293 reporter cells. In kind it is cell-based. The source says:
CHO and HEK-293 recombinant cell lines express a luciferase reporter gene under control of the CAMP responsive element (CRE). As a second recombinant protein the GLP-1 and NPY2 receptors were expressed in the reporter gene HEK cells, and the GIP receptor was expressed in the reporter gene CHO cells, respectively. Stimulation of these recombinant cells with an agonist leads to an increase of intracellular CAMP levels. In the presence of CAMP, the transcription factor CRE binding protein (CREB) binds to the CRE and to the CREB binding protein (CBP), which leads to transcription of the luciferase reporter gene. Peptides upon serial-dilution in 100% DMSO were transferred into 384-well assay plates with 5 μl pre-dispensed assay buffer (1×HBSS, 20 mM HEPES, pH7.4 supplemented with 0.5% human plasma) using acoustic dispensing on a Labcyte ECHO. Cryo-preserved transgenic reporter gene cells were thawed in assay buffer. 20 μl (10.000 cells/well) were added to the plate with the peptides and incubated for 4 hours at 37° C. in a humidified incubator. Following incubation, assay plates are equilibrated to room temperature, followed by addition of 25 μl of Bright-Glo™ Luciferase reagent, incubation at room temperature for 10 minutes and analysis of luminescence (Envision Reader). […] EC50 values were calculated by non-linear regression using sigmoid concentration-response with variable slope.
The same assays were run in the presence of 100% plasma with no additional buffer constituents.

The target of assay [1] is T3, human neuropeptide Y2 receptor (human, UniProt P49146 1-381).
T3 sequence (looked up): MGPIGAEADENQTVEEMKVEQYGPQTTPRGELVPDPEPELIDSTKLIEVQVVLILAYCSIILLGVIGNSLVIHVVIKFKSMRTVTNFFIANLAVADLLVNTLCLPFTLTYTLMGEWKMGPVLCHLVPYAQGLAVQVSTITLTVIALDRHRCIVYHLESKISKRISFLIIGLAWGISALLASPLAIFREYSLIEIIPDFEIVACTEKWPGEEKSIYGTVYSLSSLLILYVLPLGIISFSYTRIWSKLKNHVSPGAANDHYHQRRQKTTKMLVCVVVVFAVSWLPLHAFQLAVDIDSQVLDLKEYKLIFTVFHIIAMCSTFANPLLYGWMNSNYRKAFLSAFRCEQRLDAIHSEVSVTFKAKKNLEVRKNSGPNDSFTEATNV
The experiment in a line: cell-based or functional assay.

Where [2] appears, read: 0.5% human plasma, read-out: hGIPR 0.5% hP.
[3] abbreviates: 0.5% human plasma, read-out: hGLP1R 0.5% hP.
Where [4] appears, read: 100% human plasma, read-out: hGIPR 100% hP.

Like-named read-outs stand apart in the source and are kept apart here. *1 amine or outer side, *2 acyl side, *3 side chain or, on linkers, in order; H or OH if unused. Where a SMILES comes first, the peptide text is derived from it. Where no end group is shown, it is not given here. Side-chain parts run from the residue outwards. [ ]: non-standard residue; d: D form. The star is where a group is joined. C20 diacid = O=C(O)CCCCCCCCCCCCCCCCCCC(=O)*; C18 diacid = O=C(O)CCCCCCCCCCCCCCCCC(=O)*; γGlu = O=C(O)[C@H](CCC(=O)[*:2])N[*:1]; εLys = N[C@@H](CCCCN[*:1])C(=O)[*:2]; Aib = CC(C)(N)C(=O)O; Ahx = NCCCCCC(=O)O

For `CC[C@H](C)[C@H](NC(=O)[C@H](Cc1ccccc1)NC(=O)[C@H](C)NC(=O)C(C)(C)NC(=O)[C@H](CCC(N)=O)NC(=O)[C@H](C)NC(=O)[C@H](CCC(N)=O)NC(=O)[C@H](CCCCN)NC(=O)[C@H](CCC(=O)O)NC(=O)[C@H](CC(C)C)NC(=O)C(C)(C)NC(=O)[C@@H](NC(=O)[C@H](CO)NC(=O)[C@H](CC(C)C)NC(=O)[C@H](CC(=O)O)NC(=O)[C@H](CO)NC(=O)[C@@H](NC(=O)[C@H](Cc1ccccc1)NC(=O)[C@@H](NC(=O)CNC(=O)[C@H](CCC(=O)O)NC(=O)C(C)(C)NC(=O)[C@@H](N)Cc1ccc(O)cc1)[C@@H](C)O)[C@@H](C)O)[C@@H](C)CC)C(=O)N[C@@H](CCCNC(=N)N)C(=O)N[C@@H](Cc1c[nH]cn1)C(=O)N[C@@H](CC(C)C)C(=O)N[C@H](C(=O)N[C@@H](CC(N)=O)C(=O)N[C@@H](CCCCNC(=O)[C@@H](N)CCCCNC(=O)CC[C@H](NC(=O)CC[C@H](NC(=O)CC[C@H](NC(=O)CC[C@H](NC(=O)CC[C@H](NC(=O)CC[C@H](NC(=O)CCCCCCCCCCCCCCCCCCC(=O)O)C(=O)O)C(=O)O)C(=O)O)C(=O)O)C(=O)O)C(=O)O)C(=O)NC(C)(C)C(=O)N[C@H](C(=O)N[C@@H](CCCNC(=N)N)C(=O)N[C@@H](CCC(N)=O)C(=O)N[C@@H](CCCNC(=N)N)C(=O)N[C@@H](Cc1ccc(O)cc1)C(N)=O)[C@@H](C)O)[C@@H](C)CC` [Compound 21, Y-Aib-E-G-T-F-T-S-D-L-S-I-Aib-L-E-K-Q-A-Q-Aib-A-F-I-R-H-L-I-N-K(1,3)-Aib-T-R-Q-R-Y-NH2.C20DA-gGlu-gGlu-gGlu-gGlu-gGlu-gGlu-eLys(1,2)], the EC50 at hGIPR (hGIPR 0.5% hP (nM), 0.5% human plasma) turned out to be 0.2 nM; at hGIPR (hGIPR 100% hP (nM), 100% human plasma) it was 5.6 nM; at hGLP1R (hGLP1R 100% hP (nM), 100% human plasma), 13.9 nM.

Consider `CC[C@H](C)[C@H](NC(=O)[C@H](CC(C)C)NC(=O)[C@H](Cc1c[nH]cn1)NC(=O)[C@H](CCCNC(=N)N)NC(=O)[C@@H](NC(=O)[C@H](Cc1ccccc1)NC(=O)[C@H](C)NC(=O)C(C)(C)NC(=O)[C@H](CCC(N)=O)NC(=O)[C@H](C)NC(=O)[C@H](CCC(N)=O)NC(=O)[C@H](CCCCN)NC(=O)[C@H](CCC(=O)O)NC(=O)[C@H](CC(C)C)NC(=O)C(C)(C)NC(=O)[C@@H](NC(=O)[C@H](CO)NC(=O)[C@H](Cc1ccc(O)cc1)NC(=O)[C@H](CC(=O)O)NC(=O)[C@H](CO)NC(=O)[C@@H](NC(=O)[C@H](Cc1ccccc1)NC(=O)[C@@H](NC(=O)CNC(=O)[C@H](CCC(=O)O)NC(=O)C(C)(C)NC(=O)[C@@H](N)Cc1ccc(O)cc1)[C@@H](C)O)[C@@H](C)O)[C@@H](C)CC)C(C)C)C(=O)N[C@@H](CC(N)=O)C(=O)N[C@@H](CCCCNC(=O)CC[C@H](NC(=O)CC[C@H](NC(=O)CC[C@H](NC(=O)CC[C@H](NC(=O)CC[C@H](NC(=O)CC[C@H](NC(=O)CCCCCCCCCCCCCCCCCCC(=O)O)C(=O)O)C(=O)O)C(=O)O)C(=O)O)C(=O)O)C(=O)O)C(=O)NC(C)(C)C(=O)N[C@H](C(=O)N[C@@H](CCCNC(=N)N)C(=O)N(C)[C@@H](CCC(N)=O)C(=O)N[C@@H](CCCNC(=N)N)C(=O)N[C@@H](Cc1ccc(O)cc1)C(N)=O)[C@@H](C)O` [Compound 114, Y-Aib-E-G-T-F-T-S-D-Y-S-I-Aib-L-E-K-Q-A-Q-Aib-A-F-V-R-H-L-I-N-K(1,3)-Aib-T-R-NMeQ-R-Y-NH2.C20DA-gGlu-gGlu-gGlu-gGlu-gGlu-gGlu(1,2)], for which the values for the EC50 on hGIPR (setting [2]) and at hGLP1R (setting [3]) were 0.5 nM and 1.8 nM, respectively.

Regarding `CC[C@H](C)[C@H](NC(=O)[C@H](C)NC(=O)[C@H](Cc1ccc(O)cc1)NC(=O)[C@H](CC(=O)O)NC(=O)[C@H](CO)NC(=O)[C@@H](NC(=O)[C@H](Cc1ccccc1)NC(=O)[C@@H](NC(=O)CNC(=O)[C@H](CCC(=O)O)NC(=O)C(C)(C)NC(=O)[C@@H](N)Cc1ccc(O)cc1)[C@@H](C)O)[C@@H](C)O)C(=O)NC(C)(C)C(=O)N[C@@H](CC(C)C)C(=O)N[C@@H](CCC(=O)O)C(=O)N[C@@H](CCCCN)C(=O)N[C@@H](CCC(N)=O)C(=O)N[C@@H](C)C(=O)N[C@@H](CCC(N)=O)C(=O)NC(C)(C)C(=O)N[C@@H](C)C(=O)N[C@@H](Cc1ccccc1)C(=O)N[C@H](C(=O)N[C@@H](CCCNC(=N)N)C(=O)N[C@@H](Cc1c[nH]cn1)C(=O)N[C@@H](CC(C)C)C(=O)N[C@H](C(=O)N[C@@H](CC(N)=O)C(=O)N[C@@H](CCCCNC(=O)[C@@H](N)CCCCNC(=O)CC[C@H](NC(=O)CC[C@H](NC(=O)CC[C@H](NC(=O)CC[C@H](NC(=O)CC[C@H](NC(=O)CC[C@H](NC(=O)CCCCCCCCCCCCCCCCC(=O)O)C(=O)O)C(=O)O)C(=O)O)C(=O)O)C(=O)O)C(=O)O)C(=O)NC(C)(C)C(=O)N[C@H](C(=O)N[C@@H](CCCNC(=N)N)C(=O)N[C@@H](CCC(N)=O)C(=O)N[C@@H](CCCNC(=N)N)C(=O)N[C@@H](Cc1ccc(O)cc1)C(N)=O)[C@@H](C)O)[C@@H](C)CC)C(C)C` [Compound 142, Y-Aib-E-G-T-F-T-S-D-Y-A-I-Aib-L-E-K-Q-A-Q-Aib-A-F-V-R-H-L-I-N-K(1,3)-Aib-T-R-Q-R-Y-NH2.C18DA-gGlu-gGlu-gGlu-gGlu-gGlu-gGlu-eLys(1,2)], the EC50 at hGIPR (setting [2]) was found to be 0.3 nM; at hGIPR (setting [4]) it was 3.4 nM; on hGLP1R (100% human plasma, read-out: hGLP1R 100% hP), 8 nM.

For `CC[C@H](C)[C@H](NC(=O)[C@H](CC(C)C)NC(=O)[C@H](Cc1c[nH]cn1)NC(=O)[C@H](CCCNC(=N)N)NC(=O)[C@@H](NC(=O)[C@H](Cc1ccccc1)NC(=O)[C@H](C)NC(=O)C(C)(C)NC(=O)[C@H](CCC(N)=O)NC(=O)[C@H](C)NC(=O)[C@H](CCC(N)=O)NC(=O)[C@H](CCCNC(=N)N)NC(=O)[C@H](CC(=O)O)NC(=O)[C@H](CC(C)C)NC(=O)C(C)(C)NC(=O)[C@@H](NC(=O)[C@H](CO)NC(=O)[C@H](Cc1ccc(O)cc1)NC(=O)[C@H](CC(=O)O)NC(=O)[C@H](CO)NC(=O)[C@@H](NC(=O)[C@H](Cc1ccccc1)NC(=O)[C@@H](NC(=O)CNC(=O)[C@H](CCC(=O)O)NC(=O)C(C)(C)NC(=O)[C@@H](N)Cc1ccc(O)cc1)[C@@H](C)O)[C@@H](C)O)[C@@H](C)CC)C(C)C)C(=O)N[C@@H](CC(N)=O)C(=O)N[C@@H](CCCCNC(=O)[C@@H](N)CCCCNC(=O)CC[C@H](NC(=O)CC[C@H](NC(=O)CC[C@H](NC(=O)CC[C@H](NC(=O)CC[C@H](NC(=O)CC[C@H](NC(=O)CCCCCCCCCCCCCCCCC(=O)O)C(=O)O)C(=O)O)C(=O)O)C(=O)O)C(=O)O)C(=O)O)C(=O)NC(C)(C)C(=O)N[C@H](C(=O)N[C@@H](CCCNC(=N)N)C(=O)N[C@@H](CCC(N)=O)C(=O)N[C@@H](CCCNC(=N)N)C(=O)N[C@@H](Cc1ccc(O)cc1)C(N)=O)[C@@H](C)O` [Compound 147, Y-Aib-E-G-T-F-T-S-D-Y-S-I-Aib-L-D-R-Q-A-Q-Aib-A-F-V-R-H-L-I-N-K(1,3)-Aib-T-R-Q-R-Y-NH2.C18DA-gGlu-gGlu-gGlu-gGlu-gGlu-gGlu-eLys(1,2)] (H-Y[Aib]EGTFTSDYSI[Aib]LDRQAQ[Aib]AFVRHLINK([εLys-γGlu-γGlu-γGlu-γGlu-γGlu-γGlu-C18 diacid])[Aib]TRQRY-NH2), the EC50 at hGIPR (setting [2]) was found to be 0.2 nM; at hGIPR (setting [4]), 5 nM; on hGLP1R (setting [3]), 0.3 nM.

B1: Compound 165 (peptide)
peptide: YXEGTFTSDYSIALEKQAQXAFVRHLINKXTRQRY
modifications: Aib at 2, 20, 30; Lys29 epsilon-amino: C18DA-gGlu-gGlu-gGlu-gGlu-gGlu-gGlu-eLys; C-terminal amide
On to B1, for which, in assay [1], the “EC50, CreLuc reporter, 0.5% hP” value was 17.1 nM and the “EC50, CreLuc reporter, 100% hP” value amounted to 32.9 nM.

Consider Y[Aib]EGTFTSDYSI[Aib]LEKQAQ[Aib]AFVRHLINK([Ahx-γGlu-γGlu-γGlu-γGlu-γGlu-γGlu-C20 diacid])[Aib]TRQRY-NH2 [Compound 157], for which, in assay [1], the “EC50, CreLuc reporter, 0.5% hP” value is 15.9 nM and the “EC50, CreLuc reporter, 100% hP” value is 135 nM.
